Among the data in patent publication US8450352B2, “Thiazole compounds and their use for inhibiting phosphodiesterase 4, TNF-α, and IL-4” (Otsuka Pharmaceutical Co., Ltd., priority 2004, dated 2013) are melting point values, retold here.

Where a name gives a salt, the structure may show the parent alone.

`CCOc1ccc(-c2nc(/C=C/C(=O)c3ccccc3O)cs2)cc1OCC` (as salt: hydrobromid) [Example 15] displayed a melting point of 126 to 127 °C. As for `COc1ccc(-c2nc(/C=C/C(=O)c3cc(O)cc(O)c3)cs2)cc1OC` (as salt: hydrochloride) [Example 6], the figure is 164 to 168 °C; as for `COc1ccc(-c2nc(/C=C/C(=O)c3ccc(O)c(O)c3)cs2)cc1OC` (as salt: hydrochloride) [Example 7], 162 to 165 °C. As for `CCOc1ccc(-c2nc(/C=C/C(=O)c3cc(Cl)c(N)c(Cl)c3)cs2)cc1OCC` (as salt: hydrochloride) [Example 12], the figure is 165 to 168 °C; as for `CCOc1ccc(-c2nc(CCC(=O)c3ccc(O)c(O)c3)cs2)cc1OCC` (as salt: hydrochloride) [Example 92], 153.2 to 153.8 °C; as for `CCOc1ccc(-c2nc(/C=C/C(=O)c3ccc(OC(C)=O)c(OC(C)=O)c3)cs2)cc1OCC` [Example 8], 139 to 140 °C. As for `CCOc1ccc(-c2nc(/C=C/C(=O)c3c(O)cc(O)cc3O)cs2)cc1OCC` [Example 9], the figure is 188 to 189 °C; as for `CCOc1ccc(-c2nc(/C=C/C(=O)c3ccc(O)cc3)cs2)cc1OCC` [Example 10], 133 to 134 °C. `CCOc1ccc(-c2nc(/C=C/C(=O)c3cc(OC)c(OC)c(OC)c3)cs2)cc1OCC` [Example 11] came in with a melting point of 155 to 156 °C. As for `CCOc1ccc(-c2nc(/C=C/C(=O)c3ccc(OC)c(OC)c3)cs2)cc1OCC` [Example 13], the figure is 152 to 153 °C; as for `CCOc1ccc(-c2nc(/C=C/C(=O)c3ccccc3)cs2)cc1OCC` [Example 14], 129 to 130 °C; as for `CCOc1ccc(-c2nc(/C=C/C(=O)c3cccc(O)c3)cs2)cc1OCC` [Example 16], 144.5 to 146 °C. For `CCOc1ccc(-c2nc(/C=C/C(=O)c3ccc(C(=O)OC)cc3)cs2)cc1OCC` [Example 17], the melting point lay within 150 to 151 °C. As for `CCOc1ccc(-c2nc(/C=C/C(=O)c3ccc(C#N)cc3)cs2)cc1OCC` [Example 18], the figure is 164 to 167 °C; as for `CCOc1ccc(-c2nc(/C=C/C(=O)c3ccc(O)c(C(=O)O)c3)cs2)cc1OCC` [Example 19], 195 to 196 °C; as for `CCOc1ccc(-c2nc(/C=C/C(=O)c3ccc(O)c(C(=O)OC)c3)cs2)cc1OCC` [Example 20], 161.3 to 162.8 °C. As for `CCOc1ccc(-c2nc(/C=C/C(=O)c3ccc(Cl)cc3)cs2)cc1OCC` [Example 21], the figure is 131 to 133 °C; as for `COc1ccc(-c2nc(/C=C/C(=O)c3cc(C(C)(C)C)c(O)c(C(C)(C)C)c3)cs2)cc1OC` [Example 22], 228 to 230 °C; as for `CCOc1ccc(-c2nc(/C=C/C(=O)c3ccc(C(C)=O)cc3)cs2)cc1OCC` [Example 23], 128 to 129 °C.

In turn, `CCOc1ccc(-c2nc(/C=C/C(=O)c3cccc([N+](=O)[O-])c3)cs2)cc1OCC` [Example 24] came in with a melting point of 125 to 126 °C. As for `CCOc1ccc(-c2nc(/C=C/C(=O)c3ccc(F)cc3)cs2)cc1OCC` [Example 25], the figure is 116 to 121 °C. As for `CCOc1ccc(-c2nc(/C=C/C(=O)c3ccc(C)cc3)cs2)cc1OCC` [Example 26], the figure is 124 to 125.5 °C; as for `CCOc1ccc(-c2nc(/C=C/C(=O)c3ccccc3[N+](=O)[O-])cs2)cc1OCC` [Example 27], 142 to 143 °C. The compound `CCOc1ccc(-c2nc(/C=C/C(=O)c3ccc(NC(C)=O)cc3)cs2)cc1OCC` [Example 28] came in with a melting point of 199.5 to 201.5 °C. As for `CCOc1ccc(-c2nc(/C=C/C(=O)c3ccc(Cl)c(Cl)c3)cs2)cc1OCC` [Example 29], the figure is 138 to 139 °C; as for `CCOc1ccc(-c2nc(/C=C/C(=O)c3ccc(N)cc3)cs2)cc1OCC` [Example 30], 148 to 150 °C. As for `CCOc1ccc(C(=O)/C=C/c2csc(-c3ccc(OCC)c(OCC)c3)n2)cc1` [Example 31], the figure is 130 to 135 °C; as for `CCOc1ccc(-c2nc(/C=C/C(=O)c3ccc([N+](=O)[O-])cc3)cs2)cc1OCC` [Example 32], 125 to 127 °C; as for `CCOc1ccc(-c2nc(/C=C/C(=O)c3ccccc3C(=O)OC)cs2)cc1OCC` [Example 33], 132 to 133 °C. As for `COc1ccc(-c2nc(/C=C/C(=O)c3ccc(O)cc3)cs2)cc1OC` [Example 37], the figure is 174 to 177 °C; as for `COc1ccc(-c2nc(/C=C/C(=O)c3ccc(O)c(C(=O)O)c3)cs2)cc1OC` [Example 39], 227.4 to 228 °C; as for `CCOc1cc(-c2nc(/C=C/C(=O)c3cc(OC)ccc3OC)cs2)ccc1OC` [Example 40], 79 to 82 °C.

Regarding `CCOc1ccc(-c2nc(CCC(=O)c3nccs3)cs2)cc1OCC` [Example 90, 3-[2-(3,4-diethoxyphenyl)thiazole-4-yl]-1-thiazole-2-yl-1-propanone], the melting point is 93.1 to 94.4 °C. `CCOc1ccc(C(=O)CCc2csc(-c3ccc(OC)c(OC)c3)n2)cc1OCC` [Example 93] displayed a melting point of 141.3 to 142.4 °C. Turning to `COc1ccc(-c2nc(CCC(=O)c3ccc(OC(C)=O)c(OC(C)=O)c3)cs2)cc1OC` [Example 94], the melting point lay within 128 to 128.5 °C. Take `CCOc1ccc(-c2nc(CCC(=O)c3cc(OC)ccc3OC)cs2)cc1OCC` [Example 95]: the melting point is 97.8 to 98.5 °C.

With `CCOc1ccc(-c2nc(CCC(=O)c3ccccc3O)cs2)cc1OCC` [Example 98], the melting point was 113.7 to 114.9 °C. As for `CCOc1ccc(-c2nc(CCC(=O)c3ccccc3F)cs2)cc1OCC` [Example 101], the figure is 82.5 to 83.5 °C; as for `CCOc1ccc(-c2nc(CCC(=O)c3ccccc3Br)cs2)cc1OCC` [Example 103], 66.1 to 67.9 °C; as for `CCOc1ccc(-c2nc(CCC(=O)c3ccccc3Cl)cs2)cc1OCC` [Example 104], 64.4 to 65.1 °C. The compound `CCOc1ccc(-c2nc(CCC(=O)c3cc(Cl)ccc3OC)cs2)cc1OCC` [Example 108] had a melting point of 90.2 to 92 °C. As for `CCOc1ccc(-c2nc(CCC(O)c3ccccc3OC)cs2)cc1OCC` (stereo not drawn) [Example 186, 3-[2-(3,4-diethoxyphenyl)thiazole-4-yl]-1-(2-methoxyphenyl)-1-propanol], the figure is 78.2 to 79 °C; as for `CCOc1ccc(-c2nc(CCC(=O)c3ccccc3C(=O)OC)cs2)cc1OCC` [Example 240, methyl 2-{3-[2-(3,4-diethoxyphenyl)thiazole-4-yl]propionyl}benzoate], 91.7 to 92.9 °C. As for `COc1ccc(-c2nc(CC(=O)Cc3ccc(OC(C)=O)c(OC(C)=O)c3)cs2)cc1OC` [Example 242, 3-[2-(3,4-dimethoxyphenyl)thiazole-4-yl]-1-(3,4-diacetoxyphenyl)propanone], the figure is 128 to 128.5 °C. As for `CCOc1ccc(CC(=O)Cc2csc(-c3ccc(OC)c(OC)c3)n2)cc1OCC` [Example 243, 3-[2-(3,4-dimethoxyphenyl)thiazole-4-yl]-1-(3,4-diethoxyphenyl)propanone], the figure is 141.3 to 142.4 °C.

The term melting point denotes the temperature, or range, at which the solid turns liquid.
